{"source": "patent US10100011B2", "about": "“Pentadienoyl piperidine derivative and use thereof” (Industry-Academic Cooperation Foundation, Yonsei University, priority 2014, dated 2018)", "format_in_all_cases": "in vivo, mouse", "key": {"C57BL/6J mice [1]": {"system": "C57BL/6J mice", "assay": "Inflammatory cytokine concentrations in blood of mice fed high-fat diet (ELISA)", "settings": "about 0.05% compound in high-fat diet, 10 weeks", "procedure": "(§1) An obesity induction diet used in this experiment was a high-fat diet (HFD: 40% fat calories, 17 g of lard+3% corn oil/100 g diet), and the compositions of diets including the LJ-2501, LJ-2488, LJ-2495, LJ-2496 compounds were identical to that of HFD, except that each of the compounds was included in an amount of about 0.05% (Table 2). As a control drug, an anti-obesity drug, sibutramine (Sibut), was added in an amount of about 0.01% to the high-fat diet and a normal diet group (Chow) was fed with commercial rodent chow.\n(§2) 5-week old 40 male C57BL/6J mice (Orient Bio., Korea) were fed with hard feed and accommodated in a laboratory environment for one week. Subsequently, in accordance with a randomized block method, the mice were randomly grouped into a normal diet group, a high-fat diet control group, two experimental substance groups, and […] and raised for a total of 10 weeks (n=8/group). Diets were supplied with water between 10 am and 11 am every day. An intake amount was measured every day and the body weights of the mice were measured every week. To prevent temporal weight change due to feed intake, feedboxes were removed and, after two hours, the body weights were measured. The experimental animals were fasted for 12 hours or more and then anesthetized with diethyl ether, followed by collecting blood, liver, and visceral adipose tissues (epididymal fat, perirenal fat, mesenteric fat, and retroperitoneal fat). The collected samples were washed with 0.1 M phosphate buffered saline (pH 7.4) and then weighed. Blood samples collected from abdominal aortas were centrifuged at 1000×g for 15 minutes, thereby separating plasma.\nThe concentrations of TNFα, MCP-1, IL-6, leptin, and insulin in plasma were measured according to an ELISA method using the Mouse Adipokine Magnetic Bead Panel kit (MADKMAG-71K, EMD Millipore Corporation, Mass., USA)."}, "[2]": {"system": "genes related to lipogenesis and AMPK in liver tissue", "assay": "Gene (RT-PCR) and protein (Western blotting) expression in liver tissue of mice", "settings": "compound in high-fat diet, pattern similar to Chow group", "procedure": "1 ml of a TRIzol solution per 0.1 g of epididymal fat tissue was added to the pulverized tissue, followed by centrifuging at 4° C. and 12,000×g for 10 minutes. A supernatant was transferred into a new tube and then 200 μl of chloroform was added thereto, followed by vortexing. This process was repeated twice and then a supernatant was transferred into a new tube. Subsequently, isopropanol and the supernatant were mixed in a ratio of 1:1 and strongly shook ten times, followed by standing at room temperature for 10 minutes. Subsequently, centrifugation was carried out at 12,000×g and 4° C. for 10 minutes, followed by removing a supernatant and adding 1 ml of 70% ethanol to the remaining precipitate. Subsequently, centrifugation was carried out at 7,500×g and 4° C. for five minutes. Ethanol was removed and then the tube containing an RNA precipitate was dried at room temperature for five minutes. […] The concentrations of the extracted RNA samples were measured at wavelengths of 260 nm and 280 nm by means of a UV/VIS spectrophotometer (Beckman Coulter, DU730). […]\nA predetermined amount of visceral fat or liver tissue was homogenized with liquid nitrogen and a lysis buffer in a mortar and then centrifuged at 13,000 rpm and 4° C. for 20 minutes. Subsequently, a middle layer was collected and subjected to protein quantification according to the Bradford method. […]"}, "C57BL/6J mice [3]": {"system": "C57BL/6J mice", "assay": "Oral glucose tolerance test, fasting blood glucose and insulin in mice fed high-fat diet", "procedure": "as §1, §2\nThe experimental animals were fasted for 18 hours after being raised eight weeks for experiment and orally administered d-glucose in an amount of 2 g/kg body weight. At 15 minutes, 30 minutes, 60 minutes, 120 minutes after the d-glucose administration, blood was collected from the tail veins of the mice. A glucose concentration in the collected blood was measured by means of a strip-operated blood glucose sensor (ONETOUCH Ultra, Inverness Medical Ltd. Stockport, UK).\nA glucose concentration in plasma during fasting was measured by means of an automatic biochemical analyzer (Express Plus, Chiron Diagnostics Co., USA) and a kit reagent for analysis was purchased from Bayer (Tarrytown, N.Y., USA). An insulin concentration in plasma was measured using the Rat Insulin RIA kit (LINCO Research, Inc, St. Charles, USA)."}, "C57BL/6J mice [4]": {"system": "C57BL/6J mice", "assay": "Plasma lipid concentrations in mice fed high-fat diet", "settings": "about 0.05% compound in high-fat diet, 10 weeks", "procedure": "as §1, §2\nUsing the aforementioned experimental animals raised for 10 weeks, the concentrations of a total of cholesterol, neutral fat, and glucose in plasma and lipid components in liver tissue were measured as follows. The concentrations of a total of cholesterol, neutral fat, and free fatty acid in plasma were respectively measured twice using a commercial measurement kit (Bio Clinical System)."}, "C57BL/6J mice [5]": {"system": "C57BL/6J mice", "assay": "Body weight and visceral fat weight in mice fed high-fat diet", "settings": "about 0.05% compound in high-fat diet, 10 weeks", "procedure": "as §1, §2"}}}
{"smiles": "CSc1ccc(/C=C/C=C/C(=O)N2CCCCC2)cc1", "note": "[LJ-2501, (2E,4E)-5-(4-(methylthio)phenyl)-1-(piperine-1-yl)penta-2,4-diene-1-one]", "values": [{"measurement": "blood IL-6 concentration, reduction compared to HFD", "setting": "C57BL/6J mice [1]", "result": 38, "unit": "%"}, {"measurement": "blood MCP-1 concentration, reduction compared to HFD", "setting": "C57BL/6J mice [1]", "result": 22, "unit": "%"}, {"measurement": "blood TNF-α concentration, reduction compared to HFD", "setting": "C57BL/6J mice [1]", "result": 25, "unit": "%"}, {"measurement": "blood leptin concentration, reduction compared to HFD", "setting": "C57BL/6J mice [1]", "result": 25, "unit": "%"}, {"measurement": "HFD-caused increase of expression of downstream genes of AMPK (LXRα, SREBP-1c, LPL, FAS, ACC) in liver tissue", "setting": "[2]; RT-PCR", "result": "reversed"}, {"measurement": "HFD-caused reduction of AMPK phosphorylation in liver tissue", "setting": "[2]; Western blotting", "result": "reversed"}, {"measurement": "blood glucose concentrations after oral glucose compared to HFD (in words)", "setting": "C57BL/6J mice [3]; 2 g/kg glucose orally, 15, 30, 60 and 120 minutes", "result": "reduced in all time slots"}, {"measurement": "insulin resistance index (HOMA-IR), reduction compared to HFD", "setting": "C57BL/6J mice [3]; calculated from fasting glucose and insulin, 10 weeks", "result": 61, "unit": "%"}, {"measurement": "blood glucose concentration during fasting, reduction compared to HFD", "setting": "C57BL/6J mice [3]; compound in high-fat diet for 10 weeks", "result": 20, "unit": "%"}, {"measurement": "blood insulin concentration, reduction compared to HFD", "setting": "C57BL/6J mice [3]; compound in high-fat diet for 10 weeks, fasting", "result": 59, "unit": "%"}, {"measurement": "area under the curve (AUC) of blood glucose concentration, reduction compared to HFD", "setting": "C57BL/6J mice [3]; oral glucose tolerance test, 2 g/kg glucose", "result": 35, "unit": "%"}, {"measurement": "plasma LDL+VLDL cholesterol concentration, reduction compared to HFD", "setting": "C57BL/6J mice [4]", "result": 27, "unit": "%"}, {"measurement": "plasma free fatty acid concentration, reduction compared to HFD", "setting": "C57BL/6J mice [4]", "result": 69, "unit": "%"}, {"measurement": "plasma neutral fat concentration, reduction compared to HFD", "setting": "C57BL/6J mice [4]", "result": 34, "unit": "%"}, {"measurement": "plasma total cholesterol concentration, reduction compared to HFD", "setting": "C57BL/6J mice [4]", "result": 35, "unit": "%"}, {"measurement": "cumulative weight gain, reduction compared to high-fat diet control group (HFD)", "setting": "C57BL/6J mice [5]", "result": 60, "unit": "%"}, {"measurement": "diet intake amount compared to HFD control group", "setting": "C57BL/6J mice [5]", "result": "not greatly different"}, {"measurement": "epididymal fat, perirenal fat, mesenteric fat and retroperitoneal fat weights compared to HFD (in words)", "setting": "C57BL/6J mice [5]", "result": "significant reduction"}, {"measurement": "total weight of visceral fats (four fat types), reduction compared to HFD", "setting": "C57BL/6J mice [5]", "result": 72, "unit": "%"}, {"measurement": "visceral fat amount in abdominal section image compared to HFD (naked eye)", "setting": "C57BL/6J mice [5]", "result": "remarkably reduced"}]}
